IC50 data for 25 compounds are collected here from PubChem BioAssay AID624167 (Sanford-Burnham Center for Chemical Genomics, 2012).

For assay [1], the system named is PEG-3. Briefly: inhibition of PEG-3 promoter-driven reporter – cell-based, HeLa, luciferase, CREF/GAPDH counter-screen panel, dose response (AID 624167). The note with it: HeLa PEG-Prom luciferase reporter, overnight, CREF/GAPDH counter-screens. (A counterscreen serves to expose hits that act by an unwanted route or on another target.)
The target in assay [2] is PEG-3 (UniProt Q6IN02). The assay is described as above. The note with it: HeLa PEG-Prom luciferase reporter, overnight, CREF/GAPDH counter-screens, mean of runs.
Setting [3] is: run 1, dose range 1, individual replicate IC50 per panel.
[4] abbreviates: run 2, dose range 1, individual replicate IC50 per panel.

Molecules are shown by their SMILES. Active and inactive are the calls of the source.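 Rule for the calls: active = mean IC50 for reducing PEG3 promoter reporter signal at or below a set limit, with IC50 above the limit in both counter screens; inactive = the rest, including counter screen hits.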

Sequence of PEG-3 (UniProt Q6IN02) (Q6IN02 whole entry, looked up): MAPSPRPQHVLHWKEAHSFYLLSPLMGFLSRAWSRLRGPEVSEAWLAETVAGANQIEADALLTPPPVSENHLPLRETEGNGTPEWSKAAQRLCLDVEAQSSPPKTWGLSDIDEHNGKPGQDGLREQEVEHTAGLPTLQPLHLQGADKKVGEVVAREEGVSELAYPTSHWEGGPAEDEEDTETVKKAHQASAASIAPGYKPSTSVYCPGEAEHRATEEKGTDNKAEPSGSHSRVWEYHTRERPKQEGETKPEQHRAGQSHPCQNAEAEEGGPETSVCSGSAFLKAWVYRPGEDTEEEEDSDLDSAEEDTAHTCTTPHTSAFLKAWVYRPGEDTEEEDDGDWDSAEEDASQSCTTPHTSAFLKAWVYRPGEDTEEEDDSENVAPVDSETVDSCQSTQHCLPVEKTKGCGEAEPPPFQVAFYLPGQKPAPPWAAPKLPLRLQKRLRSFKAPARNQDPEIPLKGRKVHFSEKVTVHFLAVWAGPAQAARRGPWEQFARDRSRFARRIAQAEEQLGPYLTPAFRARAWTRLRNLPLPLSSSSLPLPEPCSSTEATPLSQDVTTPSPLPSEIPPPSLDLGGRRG

`COc1ccc(CC(=O)N(Cc2ccccc2)c2ccccc2)cc1S(=O)(=O)N1CCOCC1`: the values for the IC50 with PEG-3 [1] (setting [3]) and in the assay on PEG-3 [1] (setting [4]) were 50.5 µM and over 100 µM, respectively. Besides, at PEG-3 [2], the IC50 (commonly the concentration needed to halve the response being measured) was “inactive”.

As for `O=C(Nc1ccccc1)c1nc[nH]c1C(=O)NCCCNC(=O)c1[nH]cnc1C(=O)Nc1ccccc1`, the figures for the IC50 with PEG-3 [1] (setting [3]) and in the assay on PEG-3 [1] (setting [4]) were 17.2 µM and over 100 µM, respectively. For the same compound, the IC50 result at PEG-3 [2] was “inactive”.

Take `CCOC(=O)c1c(C)[nH]c(C(=O)OCC(=O)Nc2sccc2C(N)=O)c1C`: the results for the IC50 with PEG-3 [1] (setting [3]) and with PEG-3 [1] (setting [4]) were 31.1 µM and 68.7 µM, respectively. Further, the IC50 result on PEG-3 [2] was “inactive”.

Consider `CCOc1ccc2nc(N(CCCN(C)C)C(=O)c3ccc(C(=O)c4ccccc4)cc3)sc2c1`, for which the IC50 was 20.3 µM in the assay with PEG-3 [1] (setting [3]), 7.58 µM in the assay on PEG-3 [1] (setting [4]) and 13.9 µM at PEG-3 [2].

As to `CC1(C)C(=O)C=CC(=O)C(C)(C)C(=O)C=CC(=O)C(C)(C)C2=CC=C(O2)C(C)(C)C(=O)C=CC1=O`, the IC50 with PEG-3 [1] (setting [3]) is 16.6 µM; in the assay on PEG-3 [1] (setting [4]), 11.8 µM; at PEG-3 [2], 14.2 µM.

As for `COc1ccccc1N1CCN(C(=O)c2sc3ncnc(N4CCN(c5ccccn5)CC4)c3c2C)CC1`, the IC50 was 27.6 µM in the assay with PEG-3 [1] (setting [3]) and 19.7 µM in the assay with PEG-3 [1] (setting [4]). For the same compound, the IC50 result at PEG-3 [2] was “inactive”.

For the compound `COc1cccc(NC(=O)Nc2cccc(C(=O)O)c2)c1`, the IC50 with PEG-3 [1] (setting [3]) came to 15.1 µM; in the assay with PEG-3 [1] (setting [4]) it was 30 µM. In addition, on PEG-3 [2], the IC50 result is “inactive”.

For the compound `O=C(c1ccco1)N1CCN(c2ncnc3c2[nH]c2ccc(Br)cc23)CC1`, the IC50 with PEG-3 [1] (setting [3]) came to 24.9 µM; in the assay on PEG-3 [1] (setting [4]) it was 24.1 µM. Besides, on PEG-3 [2], the IC50 entry was “inactive”.

On to `CC1(C)Oc2cc3oc(-c4cc(O)cc(O)c4)cc3cc2CC1O` (stereo not given), for which the figures for the half-inhibitory concentration (IC50) in the assay on PEG-3 [1] (setting [3]) and with PEG-3 [1] (setting [4]) were 37.1 µM and 13.7 µM, respectively. Also, at PEG-3 [2], the IC50 entry is “inactive”.

As to `C[C@@H](C(=O)Nc1ccc2c(c1)OCCO2)n1c(=O)[nH]c2ccccc2c1=O`, the IC50 with PEG-3 [1] (setting [3]) was 11.8 µM; in the assay with PEG-3 [1] (setting [4]) it was over 100 µM. Further, the IC50 entry at PEG-3 [2] was “inactive”.

On to `COc1ccc(NS(=O)(=O)c2ccc3ccccc3c2)c2ncccc12`, for which the IC50 was 13.5 µM in the assay on PEG-3 [1] (setting [3]), 21.6 µM in the assay with PEG-3 [1] (setting [4]) and 17.6 µM at PEG-3 [2].

Turning to `CCCCCCCNC(=O)C1(CC2CC(c3ccccc3)=NO2)CCNCC1` (stereo not given), the IC50 with PEG-3 [1] (setting [3]) stood at 35.4 µM; in the assay on PEG-3 [1] (setting [4]), 16.7 µM. Moreover, the IC50 result on PEG-3 [2] is “inactive”.

Regarding `O=S(=O)(/N=C(/Sc1ccccc1)c1ccccc1)c1ccccc1`, the values for the IC50 with PEG-3 [1] (setting [3]) and in the assay with PEG-3 [1] (setting [4]) were 28.9 µM and 19.1 µM, respectively. For the same compound, at PEG-3 [2], the IC50 entry was “inactive”.

Consider `Cn1nnnc1Sc1ncnc2scc(-c3ccsc3)c12`, for which the IC50 with PEG-3 [1] (setting [3]) was 14.7 µM; in the assay on PEG-3 [1] (setting [4]), 8.36 µM; at PEG-3 [2], 11.5 µM.

Regarding `Oc1[nH]c2ccc(Br)cc2c1N=NC(=S)Nc1ccc(F)cc1`, the figures for the IC50 in the assay on PEG-3 [1] (setting [3]), with PEG-3 [1] (setting [4]) and at PEG-3 [2] were 10.5 µM, 28.1 µM and 19.3 µM, respectively.

Take `CN1OC[C@@H]2CN[C@H](c3ccc(-c4cc5ccccc5o4)cc3)C[C@@H]21`: the IC50 was 24.9 µM with PEG-3 [1] (setting [3]), 12.6 µM in the assay with PEG-3 [1] (setting [4]) and 18.8 µM at PEG-3 [2].

On to `CCOC(=O)c1c(NC(=O)CSc2nnnn2-c2ccccc2OCC)sc2c1CC(C)(C)NC2(C)C`, for which the values for the IC50 in the assay with PEG-3 [1] (setting [3]) and in the assay with PEG-3 [1] (setting [4]) were 19.6 µM and 39.9 µM, respectively. Further, the IC50 entry on PEG-3 [2] is “inactive”.

With `COCOCCn1cc(CN2CCS(=O)(=O)N(Cc3ccc(-c4ccc(Cl)c(Cl)c4)cc3)C(C(C)C)C2=O)nn1` (stereo not given), the 50% inhibitory concentration (IC50) in the assay on PEG-3 [1] (setting [3]) worked out at 34.9 µM; in the assay with PEG-3 [1] (setting [4]), 18 µM. In addition, at PEG-3 [2], the IC50 entry is “inactive”.

In the case of `Cc1ccc(C)c(CN2CCC(CNC(=O)Nc3ccc(F)c(Cl)c3)CC2)c1`, the IC50 was 17.3 µM in the assay on PEG-3 [1] (setting [3]), 12 µM in the assay on PEG-3 [1] (setting [4]) and 14.7 µM on PEG-3 [2].

For the compound `Cc1cccc(N2CCN(C(=O)C3CCN(c4ncnc5c4nc4n5CCCCC4)CC3)CC2)c1C`, the IC50 in the assay with PEG-3 [1] (setting [3]) came to 30.2 µM; with PEG-3 [1] (setting [4]), 18.3 µM. Further, the IC50 result at PEG-3 [2] was “inactive”.

Consider `Cc1c(CCOC(=O)C23CC4CC(CC(C)(C4)C2)C3)sc[n+]1CC(=O)c1ccccc1`, for which the results for the IC50 in the assay on PEG-3 [1] (setting [3]) and in the assay on PEG-3 [1] (setting [4]) were 21.8 µM and 21.7 µM, respectively. Moreover, the IC50 result at PEG-3 [2] is “inactive”.

For the compound `Cc1cc(C(=O)COC(=O)C2=COCCO2)c(C)n1-c1ccccc1`, the IC50 was 11.1 µM in the assay with PEG-3 [1] (setting [3]), 12.5 µM in the assay on PEG-3 [1] (setting [4]) and 11.8 µM at PEG-3 [2].

For `Cc1ccc(C2=NC(=O)/C(=C/c3cc(O)c(O)c(Br)c3)S2)cc1`, the IC50 in the assay on PEG-3 [1] (setting [3]) worked out at 17.1 µM; in the assay with PEG-3 [1] (setting [4]), 27.1 µM. Further, the IC50 result on PEG-3 [2] was “inactive”.

Consider `CCOc1cc(CNCCO)cc(Br)c1OCc1ccccc1Cl`, for which the IC50 was determined as 41.2 µM in the assay with PEG-3 [1] (setting [3]) and 73.4 µM with PEG-3 [1] (setting [4]). In addition, on PEG-3 [2], the IC50 entry is “inactive”.

As to `c1ccc(C(=NNc2nc3ccccc3s2)c2ccccn2)cc1`, the figures for the IC50 in the assay on PEG-3 [1] (setting [3]), in the assay on PEG-3 [1] (setting [4]) and on PEG-3 [2] were 6.63 µM, 25.3 µM and 16 µM, respectively.
